What follows are compounds tested against T1, Phenylethanolamine N-methyltransferase (Bos taurus, UniProt P10938) (assay: In vitro inhibitory activity against bovine phenylethanolamine N-methyl-transferase).
T1 sequence (P10938 whole entry): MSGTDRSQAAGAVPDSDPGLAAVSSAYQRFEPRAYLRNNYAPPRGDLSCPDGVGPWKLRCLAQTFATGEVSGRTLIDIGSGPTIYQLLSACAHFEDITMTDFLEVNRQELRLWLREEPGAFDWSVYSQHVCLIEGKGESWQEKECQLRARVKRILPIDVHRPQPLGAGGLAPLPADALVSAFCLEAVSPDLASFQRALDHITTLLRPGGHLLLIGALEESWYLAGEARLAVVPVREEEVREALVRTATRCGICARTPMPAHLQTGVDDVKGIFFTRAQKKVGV

Compound | Ki
NC12CCC(C1)c1ccccc1C2 (stereo unspecified) | 206 µM
NC1CC2CC1c1cccc(O)c12 (stereo unspecified) | > 10000 µM
NC1CC2CC1c1ccccc12 (stereo unspecified) | 479 µM
COc1ccc2c(c1)C1CC2CC1N (stereo unspecified) | > 2000 µM
NC12CCC(C1)c1ccc(O)cc1C2 (stereo unspecified) | 1270 µM
COc1ccc2c(c1)CCC(N)C2 (stereo unspecified) | 34 µM
NC1CCc2c(O)cccc2C1 (stereo unspecified) | 21 µM
NC12CCC(C1)c1cc(O)ccc1C2 (stereo unspecified) | 111 µM
NCCc1ccccc1 [PHENETHYLAMINE] | 854 µM
NC1CCc2ccccc2C1 (stereo unspecified) | 6.8 µM
COc1ccc2c(c1)C1CCC(N)(C2)C1 (stereo unspecified) | 389 µM
NC1CCc2cc(O)ccc2C1 (stereo unspecified) | 4.7 µM
COc1ccc2c(c1)CC1(N)CCC2C1 (stereo unspecified) | 1410 µM
COc1cccc2c1C1CC2CC1N (stereo unspecified) | > 2000 µM
NC1CC2CC1c1ccc(O)cc12 (stereo unspecified) | 304 µM
COc1cccc2c1C1CC(N)C2C1 (stereo unspecified) | > 2000 µM
COc1ccc2c(c1)CC(N)CC2 (stereo unspecified) | 228 µM
COc1cccc2c1C1CCC(N)(C2)C1 (stereo unspecified) | 8420 µM
COc1cccc2c1CCC(N)C2 (stereo unspecified) | 157 µM
N[C@@H]1CC2CC1c1c(O)cccc12 (stereo partly specified) | > 3000 µM
NC1CCc2cccc(O)c2C1 (stereo unspecified) | 39 µM
NC12CCC(C1)c1c(O)cccc1C2 (stereo unspecified) | 3470 µM
COc1cccc2c1CC(N)CC2 (stereo unspecified) | 144 µM

These compounds were tested against T1, Phenylethanolamine N-methyltransferase (assay: In vitro inhibitory activity against Phenylethanolamine N-methyl-transferase (PNMT)).

Compound | Ki
NC1CCc2ccc(O)cc2C1 (stereo unspecified) | 76 µM

The compounds below were run against T1, Phenylethanolamine N-methyltransferase (assay: The compound was tested for In vitro inhibitory activity against Phenylethanolamine N-Methyltransferase (PNMT)).

Compound | Ki
NCCc1ccc(O)cc1 [TYRAMINE] | 294 µM
NCCc1cccc(O)c1 | 1250 µM

Source: ChEMBL document CHEMBL1124404, “Conformationally restricted and conformationally defined tyramine analogues as inhibitors of phenylethanolamine N-methyltransferase” (J Med Chem, 1989)
